Data from patent US20040142968A1, “Method and kit for treating lower bowel pain” (priority 2003, published 2004).

What was measured:
[1] = system: patients with pain associated with IBS
From the text: Ten Caucasian pre-menopausal women with IBS participated in the study. The mean age was 33 (±4) years. All participants completed a GI symptom questionnaire and received a physical examination by an experienced gastroenterologist. The diagnosis of IBS was made based on the ROME II criteria and exclusion of organic disease (Thompson et al., 1999). All the patients had diarrhea-predominant IBS and had symptoms for at least 5 years. All of the IBS patients were carefully screened to verify that each patient had no clinical criteria for fibromyalgia or chronic pain condition.
All subjects were asked to fast for 12 hours and self-administer one Fleets® enema (CB Fleet Co., Inc., Lynchberg, Va.) at least two hours prior to arriving for the experimental procedures. […] A validated visual analogue scale was used to measure the subjects' perceived pain (Price, 1994).
A one-hour NH condition preceded either the RL or RP administration in both sessions. Thus, patients rated their rectal pain for one hour at 15-minute intervals before injection of the rectal agent (NH) and 15 min, 30 min, 45 min, 1 hour, 2 hours, 4 hours, and 6 hours afterwards. Both agents were applied through a plastic syringe.
The pain rating at each post-treatment time point was subtracted from the baseline rating to create a pain intensity difference score (PID) for each post-treatment time point of each patient. […]

[2] = system: patient with bowel pain associated with menses; details: open injection at 4 hours after the placebo saline administration
Method: The patients were greeted in a waiting room, escorted to an examination room, and introduced to the study. […] A one-hour NH condition preceded either the RL or RP administration in both sessions. Thus, patients rated their rectal pain for one hour at 15-minute intervals before injection of the rectal agent (NH) and 15 min, 30 min, 45 min, 1 hour, 2 hours, 4 hours, and 6 hours afterwards. Both agents were applied through a plastic syringe. […] After all of the sessions were completed, the patients were debriefed.

## CCN(CC)CC(=O)Nc1c(C)cccc1C [lidocaine]
[1]
  duration of pain ameliorating effect in IBS patients: at least 4 hours
[2]
  effect of open injection on bowel pain: reversed bowel pain
